One block for each molecule: values may come before it.
Assays:
[1] = tested on: TGFβ/SMAD Singling Pathway SBE reporter cell line; assay: TGFβ reporter assay (in vitro small molecule screening); assay type: cell-based; details: SBE luciferase reporter cells, TGFβ stimulation, 18 h, luminescence
Protocol: TGFβ/SMAD Singling Pathway SBE reporter cell line was obtained from BPS Bioscience. Cells were passed, expanded, and stored in liquid nitrogen as per the supplier's instructions with the exception that growth media is changed to DMEM-C with Geneticin (DMEM supplemented with 10% fetal bovine serum, 1×NEAA, 1 mM Pyruvate, 2 mM glutamine, 50 μg/mL penicillin, 50 U/mL streptomycin and 400 μg/mL of Geneticin). The assay media was MEM supplemented with […] fetal bovine serum, 1×NEAA, 1 mM Pyruvate, 50 μg/mL penicillin and 50 U/mL streptomycin.
Test samples (at desired concentrations diluted in assay media) were added to a 96-well assay plate, 20 μL per well. Reporter cells were harvested from the tissue culture flasks by incubation in small quantity of PBS at 37° C. for two minutes after the media in the flask is removed and cells rinsed with PBS. Cells were counted and diluted in the assay media at approximately 0.5×10^6 cells/mL and then 80 μL/well of cells were added to the assay plate containing the 20 μL/well of test samples (or media only), and incubated for approximately 5-6 hours at 37° C. in a 5% CO2 humidified incubator. After that time, 15 μL of TGFβ diluted to 12 ng/mL in the assay media was added to the plate. Controls included TGFβ titration (from 50 to 0 ng/mL) without inhibitors, and media only (without cells, inhibitor or TGFβ). Plates were incubated at 37° C. in a 5% CO2 humidified incubator for 18 h. Luciferase substrate solution is subsequently added at 100 μL per well, incubated in the dark at room temperature for 15 min, and luminescence is measured using a luminometer. EC50 values and curve fits were obtained using Prism (GraphPad Software).

TGFBR2 = molecular target: T1, TGFBR2 (Homo sapiens, UniProt P37173); assay: TGFBR2 RBC enzyme assay (Reaction Biology Corp.); assay type: biochemical
T1 construct: purchased Reaction Biology Corp
Protocol: Compounds of the disclosure were assayed by Reaction Biology Corp. using the TGFBR2 RBC enzyme assay.

T1 sequence (P37173 23-567): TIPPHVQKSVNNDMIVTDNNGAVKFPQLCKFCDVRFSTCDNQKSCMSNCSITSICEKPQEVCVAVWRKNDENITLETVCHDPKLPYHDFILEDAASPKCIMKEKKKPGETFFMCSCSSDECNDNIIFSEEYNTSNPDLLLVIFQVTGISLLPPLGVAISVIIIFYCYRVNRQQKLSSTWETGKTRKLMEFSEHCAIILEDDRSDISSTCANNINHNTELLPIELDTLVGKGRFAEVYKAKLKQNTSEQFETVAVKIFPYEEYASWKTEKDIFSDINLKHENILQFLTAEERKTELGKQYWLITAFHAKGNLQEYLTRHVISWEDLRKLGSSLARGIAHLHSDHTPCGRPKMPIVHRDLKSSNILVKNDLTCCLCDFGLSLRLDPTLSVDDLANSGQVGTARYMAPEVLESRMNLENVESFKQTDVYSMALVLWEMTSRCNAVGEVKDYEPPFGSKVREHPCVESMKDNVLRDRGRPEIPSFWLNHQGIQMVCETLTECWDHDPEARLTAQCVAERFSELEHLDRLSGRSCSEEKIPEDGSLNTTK

SMILES: CC(C)(C)OC(=O)N1C[C@@H]2C[C@@H]1COc1cccc(c1)-c1cnc(N)c(n1)C(=O)Nc1cnccc1O2 (racemic) [Compound 35, (±)-tert-butyl(5^2,5^4-trans)-1^5-amino-9-oxo-3,6-dioxa-8-aza-1(2,6)-pyrazina-7(4,3)-pyridina-5(2,4)-pyrrolidina-2(1,3)-benzenacyclononaphane-51-carboxylate]
- EC50 [1]: > 5000 nM
- EC50 (TGFBR2): > 1000 nM

SMILES: Nc1ncc2nc1C(=O)Nc1cnccc1O[C@@H]1CN[C@@H](COc3cccc-2c3)C1 (racemic) [Compound 36, (±)-(5^2,5^4-trans)-1^5-amino-3,6-dioxa-8-aza-1(2,6)-pyrazina-7(4,3)-pyridina-5(2,4)-pyrrolidina-2(1,3)-benzenacyclononaphan-9-one]
- EC50 [1]: > 5000 nM
- EC50 (TGFBR2): > 1000 nM

SMILES: CC(C)(C)OC(=O)N1C[C@H]2C[C@H]1COc1ccncc1NC(=O)c1nc(cnc1N)-c1cccc(c1)O2 (racemic) [Compound 39, (±)-tert-butyl(4^3,4^5-trans)-1^5-amino-9-oxo-3,6-dioxa-8-aza-1(2,6)-pyrazina-7(4,3)-pyridina-4(3,5)-pyrrolidina-2(1,3)-benzenacyclononaphane-41-carboxylate]
- EC50 [1]: > 5000 nM
- EC50 (TGFBR2): > 1000 nM

SMILES: Nc1ncc2nc1C(=O)Nc1cnccc1OC[C@@H]1C[C@H](CN1)Oc1cccc-2c1 (racemic) [Compound 40, (±)-(4^3,4^5-trans)-1^5-amino-3,6-dioxa-8-aza-1(2,6)-pyrazina-7(4,3)-pyridina-4(3,5)-pyrrolidina-2(1,3)-benzenacyclononaphan-9-one]
- EC50 [1]: 1000 to 5000 nM
- EC50 (TGFBR2): > 1000 nM

SMILES: Nc1ncc2nc1C(=O)Nc1cnccc1NCCOCCOCCOc1cccc-2c1 [Compound 1, 2^5-amino-9,12,15-trioxa-4,6-diaza-2(2,6)-pyrazina-5(3,4)-pyridina-1(1,3)-benzenacyclopentadecaphan-3-one]
- EC50 [1]: > 5000 nM
- EC50 (TGFBR2): > 1000 nM

SMILES: Nc1ncc2nc1C(=O)Nc1cnccc1NCCCCOc1cccc-2c1 [Compound 2, 2^5-amino-11-oxa-4,6-diaza-2(2,6)-pyrazina-5(3,4)-pyridina-1(1,3)-benzenacycloundecaphan-3-one]
- EC50 [1]: > 5000 nM
- EC50 (TGFBR2): > 1000 nM

SMILES: Nc1ncc2nc1C(=O)Nc1cnccc1NCCCCCOc1cccc-2c1 [Compound 3, 2^5-amino-12-oxa-4,6-diaza-2(2,6)-pyrazina-5(3,4)-pyridina-1(1,3)-benzenacyclododecaphan-3-one]
- EC50 [1]: > 5000 nM
- EC50 (TGFBR2): > 1000 nM

SMILES: Nc1ncc2nc1C(=O)Nc1cnccc1NCCOCCOCCOCCOc1cccc-2c1 [Compound 7, 2^5-amino-9,12,15,18-tetraoxa-4,6-diaza-2(2,6)-pyrazina-5(3,4)-pyridina-1(1,3)-benzenacyclooctadecaphan-3-one]
- EC50 [1]: > 5000 nM
- EC50 (TGFBR2): > 1000 nM

SMILES: Nc1ncc2nc1C(=O)Nc1cnccc1N1CCOC(COc3cccc-2c3)C1 (stereo not shown) [Compound 8, 5^3-amino-7-oxa-3-aza-1(4,2)-morpholina-5(2,6)-pyrazina-2(4,3)-pyridina-6(1,3)-benzenacyclooctaphan-4-one]
- EC50 [1]: 1000 to 5000 nM
- EC50 (TGFBR2): 100 to 1000 nM

SMILES: CCN1CCCOc2cccc(c2)-c2cnc(N)c(n2)C(=O)Nc2cnccc21 [Compound 13, 2^5-amino-6-ethyl-10-oxa-4,6-diaza-2(2,6)-pyrazina-5(3,4)-pyridina-1(1,3)-benzenacyclodecaphan-3-one]
- EC50 [1]: 1 to 1000 nM
- EC50 (TGFBR2): 100 to 1000 nM

SMILES: CN1CCCOc2cc(OCCCN3C(=O)c4ccccc4C3=O)cc(c2)-c2cnc(N)c(n2)C(=O)Nc2cnccc21 [Compound 14, 2-(3-((2^5-amino-6-methyl-3-oxo-10-oxa-4,6-diaza-2(2,6)-pyrazina-5(3,4)-pyridina-1(1,3)-benzenacyclodecaphane-1^5-yl)oxy)propyl)isoindoline-1,3-dione]
- EC50 [1]: 1 to 1000 nM
- EC50 (TGFBR2): 1 to 100 nM

SMILES: CN1CCOCc2cccc(c2)-c2cnc(N)c(n2)C(=O)Nc2cnccc21 [Compound 15, 2^5-amino-6-methyl-9-oxa-4,6-diaza-2(2,6)-pyrazina-5(3,4)-pyridina-1(1,3)-benzenacyclodecaphan-3-one]
- EC50 [1]: 1 to 1000 nM
- EC50 (TGFBR2): 1 to 100 nM

SMILES: Nc1ncc2nc1C(=O)Nc1cnccc1N1CCC(CCOc3cccc-2c3)C1 (stereo not shown) [Compound 24, 2^5-amino-9-oxa-4-aza-2(2,6)-pyrazina-5(3,4)-pyridina-6(1,3)-pyrrolidina-1(1,3)-benzenacyclononaphan-3-one]
- EC50 [1]: > 5000 nM

SMILES: CN1CCCC(=O)Nc2cccc(c2)-c2cnc(N)c(n2)C(=O)Nc2cnccc21 [Compound 28, 2^5-amino-6-methyl-4,6,11-triaza-2(2,6)-pyrazina-5(3,4)-pyridina-1(1,3)-benzenacycloundecaphane-3,10-dione]
- EC50 [1]: > 5000 nM

SMILES: Nc1ncc2nc1C(=O)Nc1cnccc1S(=O)(=O)CCCOc1ccc(Br)c-2c1 [Compound 52, 2^5-amino-1^6-bromo-10-oxa-6-thia-4-aza-2(2,6)-pyrazina-5(3,4)-pyridina-1(1,3)-benzenacyclodecaphan-3-one 6,6-dioxide]
- EC50 [1]: > 5000 nM

SMILES: CN1CCCN(C)c2ccncc2NC(=O)c2nc(cnc2N)-c2ccc(OCCCN)c(c2)C1=O [Compound 54, 2^5-amino-1^4-(3-aminopropoxy)-6,10-dimethyl-4,6,10-triaza-2(2,6)-pyrazina-5(3,4)-pyridina-1(1,3)-benzenacycloundecaphane-3,11-dione]
- EC50 [1]: > 5000 nM

The next lines start with the values.

- EC50 [1]: 1 to 1000 nM
- EC50 (TGFBR2): 100 to 1000 nM
SMILES: CC(C)(C)OC(=O)N1C[C@@H]2C[C@H]1COc1cccc(c1)-c1cnc(N)c(n1)C(=O)Nc1cnccc1O2 (racemic) [Compound 37, (±)-tert-butyl(5^2,5^4-cis)-1^5-amino-9-oxo-3,6-dioxa-8-aza-1(2,6)-pyrazina-7(4,3)-pyridina-5(2,4)-pyrrolidina-2(1,3)-benzenacyclononaphane-51-carboxylate]

- EC50 [1]: 1 to 1000 nM
- EC50 (TGFBR2): 1 to 100 nM
SMILES: Nc1ncc2nc1C(=O)Nc1cnccc1O[C@@H]1CN[C@H](COc3cccc-2c3)C1 (racemic) [Compound 38, (±)-(5^2,5^4-cis)-1^5-amino-3,6-dioxa-8-aza-1(2,6)-pyrazina-7(4,3)-pyridina-5(2,4)-pyrrolidina-2(1,3)-benzenacyclononaphan-9-one]

- EC50 [1]: 1 to 1000 nM
SMILES: CC(C)(C)OC(=O)N1C[C@@H]2C[C@H]1COc1ccncc1NC(=O)c1nc(cnc1N)-c1cccc(c1)O2 (racemic) [Compound 41, (±)-tert-butyl(4^3,4^5-cis)-1^5-amino-9-oxo-3,6-dioxa-8-aza-1(2,6)-pyrazina-7(4,3)-pyridina-4(3,5)-pyrrolidina-2(1,3)-benzenacyclononaphane-41-carboxylate]

- EC50 [1]: 1 to 1000 nM
- EC50 (TGFBR2): 100 to 1000 nM
SMILES: Nc1ncc2nc1C(=O)Nc1cnccc1OC[C@@H]1C[C@@H](CN1)Oc1cccc-2c1 (racemic) [Compound 42, (±)-(4^3,4^5-cis)-1^5-amino-3,6-dioxa-8-aza-1(2,6)-pyrazina-7(4,3)-pyridina-4(3,5)-pyrrolidina-2(1,3)-benzenacyclononaphan-9-one]

- EC50 [1]: 1 to 1000 nM
- EC50 (TGFBR2): 1 to 100 nM
SMILES: Nc1ncc2nc1C(=O)Nc1cnccc1NCCCOc1cccc-2c1 [Compound 4, 2^5-amino-10-oxa-4,6-diaza-2(2,6)-pyrazina-5(3,4)-pyridina-1(1,3)-benzenacyclodecaphan-3-one]

- EC50 [1]: 1 to 1000 nM
- EC50 (TGFBR2): 1 to 100 nM
SMILES: CN1CCCCOc2cccc(c2)-c2cnc(N)c(n2)C(=O)Nc2cnccc21 [Compound 5, 2^5-amino-6-methyl-11-oxa-4,6-diaza-2(2,6)-pyrazina-5(3,4)-pyridina-1(1,3)-benzenacycloundecaphan-3-one]

- EC50 [1]: 1 to 1000 nM
- EC50 (TGFBR2): 1 to 100 nM
SMILES: CN1CCCOc2cccc(c2)-c2cnc(N)c(n2)C(=O)Nc2cnccc21 [Compound 6, 2^5-amino-6-methyl-10-oxa-4,6-diaza-2(2,6)-pyrazina-5(3,4)-pyridina-1(1,3)-benzenacyclodecaphan-3-one]

- EC50 [1]: 1 to 1000 nM
- EC50 (TGFBR2): 1 to 100 nM
SMILES: CN1CCCCCOc2cccc(c2)-c2cnc(N)c(n2)C(=O)Nc2cnccc21 [Compound 9, 2^5-amino-6-methyl-12-oxa-4,6-diaza-2(2,6)-pyrazina-5(3,4)-pyridina-1(1,3)-benzenacyclododecaphan-3-one]

- EC50 [1]: 1 to 1000 nM
- EC50 (TGFBR2): 1 to 100 nM
SMILES: Cc1cc2cc(c1)-c1cnc(N)c(n1)C(=O)Nc1cnccc1N(C)CCCO2 [Compound 10, 2^5-amino-1^5,6-dimethyl-10-oxa-4,6-diaza-2(2,6)-pyrazina-5(3,4)-pyridina-1(1,3)-benzenacyclodecaphan-3-one]

- EC50 [1]: 1 to 1000 nM
- EC50 (TGFBR2): 1 to 100 nM
SMILES: CN1CCOc2cccc(c2)-c2cnc(N)c(n2)C(=O)Nc2cnccc21 [Compound 11, 2^5-amino-6-methyl-9-oxa-4,6-diaza-2(2,6)-pyrazina-5(3,4)-pyridina-1(1,3)-benzenacyclononaphan-3-one]

- EC50 [1]: 1 to 1000 nM
- EC50 (TGFBR2): 1 to 100 nM
SMILES: Cc1ccc2cc1OCCCN(C)c1ccncc1NC(=O)c1nc-2cnc1N [Compound 12, 2^5-amino-1^4,6-dimethyl-10-oxa-4,6-diaza-2(2,6)-pyrazina-5(3,4)-pyridina-1(1,3)-benzenacyclodecaphan-3-one]
